The text below walks through data of patent publication US20200247800A1, “SUBSTITUTED BICYCLIC HETEROCYCLIC COMPOUNDS AS NADPH OXIDASE INHIBITORS” (Glenmark Pharmaceuticals S.A., priority 2017, published 2020).

Molecules are shown by their SMILES. Where a name gives a salt, the structure may show the parent alone.

The target in this assay is T1, human NOX4 (Homo sapiens, UniProt Q9NPH5).
T1 construct: expressed in transfected cells; membrane fraction used
T1 sequence (Q9NPH5 1-578): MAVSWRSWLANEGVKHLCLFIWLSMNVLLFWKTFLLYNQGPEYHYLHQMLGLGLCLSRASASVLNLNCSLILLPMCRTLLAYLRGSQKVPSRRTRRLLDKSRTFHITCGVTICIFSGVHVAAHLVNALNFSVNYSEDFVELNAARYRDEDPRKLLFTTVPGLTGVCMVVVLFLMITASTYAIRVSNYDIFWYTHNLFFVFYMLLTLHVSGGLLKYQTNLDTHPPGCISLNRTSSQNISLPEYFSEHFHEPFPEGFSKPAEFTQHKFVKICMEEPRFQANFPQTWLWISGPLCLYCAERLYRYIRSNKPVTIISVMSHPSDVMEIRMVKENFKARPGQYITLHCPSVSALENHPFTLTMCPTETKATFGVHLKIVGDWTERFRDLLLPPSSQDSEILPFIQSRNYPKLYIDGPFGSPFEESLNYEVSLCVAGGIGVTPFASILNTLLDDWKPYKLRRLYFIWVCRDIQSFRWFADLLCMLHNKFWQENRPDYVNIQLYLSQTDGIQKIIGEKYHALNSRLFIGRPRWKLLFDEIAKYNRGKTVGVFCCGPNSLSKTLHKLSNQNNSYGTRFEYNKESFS
T1 sequence (P13498 1-195 partner): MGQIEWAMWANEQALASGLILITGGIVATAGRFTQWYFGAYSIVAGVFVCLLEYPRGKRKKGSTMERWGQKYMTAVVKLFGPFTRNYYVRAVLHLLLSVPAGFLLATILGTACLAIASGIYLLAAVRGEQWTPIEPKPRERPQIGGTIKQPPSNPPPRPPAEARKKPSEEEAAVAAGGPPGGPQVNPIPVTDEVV
Description: Cell free membrane based in vitro NOX4 assay: H2O2 production by membranes expressing human NOX4, measured with Amplex Red. The format is biochemical. Particulars: for inhibition at 1 µM: read-out: Percentage inhibition at 1.0 μM; for inhibition at 10 µM: read-out: Percentage inhibition at 10.0 μM; for IC50: class symbols. A digest of the protocol: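 Membranes from HEK cells stably overexpressing human NOX4 were preincubated 20 min with inhibitor in pH 7.4 HEPES buffer containing HRP and Amplex Red, then NADPH was added. H2O2 was followed for 10 min by fluorescence (ex 544/em 590 nm). IC50 from nonlinear regression of % maximal uninhibited response.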

In turn, `O=c1c(O)c(-c2c(F)cccc2F)[nH]c2c1cnn2-c1ccc(F)cc1` [Example 9, 6-(2,6-Difluorophenyl)-1-(4-fluorophenyl)-5-hydroxy-1,7-dihydro-4H-pyrazolo[3,4-b]pyridin-4-one] returned an IC50 above 150 nM. For the same compound, the inhibition at 1 µM (1.0 μM compound) is 81.7%. Where the note is “10.0 μM compound”, the inhibition at 10 µM was 97.4%.

`Cc1nn(CC(C)C)c2[nH]c(-c3c(F)cccc3F)c(O)c(=O)c12` [Example 108, 6-(2,6-Difluorophenyl)-5-hydroxy-1-isobutyl-3-methyl-1H-pyrazolo[3,4-b]pyridin-4(7H)-one]: the IC50 is 50 to 100 nM. The inhibition at 1 µM (1.0 μM compound) stood at 70.7%. Further, the inhibition at 10 µM (10.0 μM compound) amounted to 77.9%.

`Cn1nc(C(F)(F)F)c2c(=O)c(O)c(-c3ccncc3Cl)[nH]c21` [Example 46, 6-(3-Chloropyridin-4-yl)-5-hydroxy-1-methyl-3-(trifluoromethyl)-1,7-dihydro-4H-pyrazolo[3,4-b]pyridin-4-one hydrochloride] registered an IC50 of 100 to 150 nM. Further, for the setting “1.0 μM compound”, the inhibition at 1 µM was found to be 73.6%. Besides, the inhibition at 10 µM (10.0 μM compound) worked out at 100%.

In the case of `Cc1cc(F)ccc1-n1nc(C)c2c(=O)c(O)c(-c3ccccc3Cl)[nH]c21` [Example 126, 6-(2-Chlorophenyl)-1-(4-fluoro-2-methylphenyl)-5-hydroxy-3-methyl-1,7-dihydro-4H-pyrazolo[3,4-b]pyridin-4-one], the IC50 was above 150 nM. Further, the inhibition at 1 µM (1.0 μM compound) was determined as 63.4%. For the same compound, the inhibition at 10 µM (10.0 μM compound) was found to be 76.3%.

Compound `CCc1nn(CCN2CCN(CC)CC2)c2[nH]c(-c3c(F)cccc3F)c(O)c(=O)c12` [Example 172, 6-(2,6-Difluorophenyl)-3-ethyl-1-(2-(4-ethylpiperazin-1-yl)ethyl)-5-hydroxy-1H-pyrazolo[3,4-b]pyridin-4(7H)-one] came in with an IC50 above 150 nM. Besides, for the setting “1.0 μM compound”, the inhibition at 1 µM was determined as 80.9%.

`CCn1nc(C)c2c(=O)c(O)c(-c3ccccc3Cl)[nH]c21` [Example 26, 6-(2-Chlorophenyl)-1-ethyl-5-hydroxy-3-methyl-1,7-dihydro-4H-pyrazolo[3,4-b]pyridin-4-one]: the IC50 was 50 to 100 nM. Further, the inhibition at 1 µM (1.0 μM compound) turned out to be 89.7%. Besides, the inhibition at 10 µM (10.0 μM compound) came to 64.5%.

In turn, `Cn1ncc2c(=O)c(O)c(-c3cccc(Cl)c3)[nH]c21` [Example 4, 6-(3-Chlorophenyl)-5-hydroxy-1-methyl-1,7-dihydro-4H-pyrazolo[3,4-b]pyridin-4-one] displayed a half-inhibitory concentration (IC50) above 150 nM. Also, under “1.0 μM compound”, the inhibition at 1 µM was 94.5%. The inhibition at 10 µM (10.0 μM compound) stood at 98.5%.

Compound `O=c1c(O)c(-c2c(F)cccc2F)[nH]c2c1c(C1CCOCC1)nn2C1CC1` [Example 190, 1-Cyclopropyl-6-(2,6-difluorophenyl)-5-hydroxy-3-(tetrahydro-2H-pyran-4-yl)-1H-pyrazolo[3,4-b]pyridin-4(7H)-one] showed an IC50 below 50 nM. Besides, the inhibition at 1 µM (1.0 μM compound) came out at 93.1%. The inhibition at 10 µM (10.0 μM compound) was 100%.

For the compound `Cn1nc(CN2CCOCC2)c2c(=O)c(O)c(-c3ccccc3Cl)[nH]c21` [Example 199, 6-(2-Chlorophenyl)-5-hydroxy-1-methyl-3-(morpholinomethyl)-1H-pyrazolo[3,4-b]pyridin-4(7H)-one], the IC50 lay in the range of 100 to 150 nM. Besides, the inhibition at 1 µM (1.0 μM compound) came out at 86.8%. Further, the inhibition at 10 µM (10.0 μM compound) came out at 93.5%.

Take `Cc1nn(-c2ccc(F)cc2)c2[nH]c(-c3c(F)cccc3F)c(O)c(=O)c12` [Example 32, 6-(2,6-Difluorophenyl)-1-(4-fluorophenyl)-5-hydroxy-3-methyl-1,7-dihydro-4H-pyrazolo[3,4-b]pyridin-4-one]: the IC50 was below 50 nM. The inhibition at 1 µM (1.0 μM compound) is 100%. Moreover, the inhibition at 10 µM (10.0 μM compound) was found to be 100%.

`Cc1nn(CCN2CCOCC2)c2[nH]c(-c3cccc(C(F)(F)F)c3F)c(O)c(=O)c12` [Example 239, 6-(2-Fluoro-3-(trifluoromethyl)phenyl)-5-hydroxy-3-methyl-1-(2-morpholinoethyl)-1H-pyrazolo[3,4-b]pyridin-4(7H)-one dihydrochloride]: the “Percentage inhibition at 1.0 μM” value (1.0 μM compound, dihydrochloride, 1 µM) is 84.59%. Further, the “Percentage inhibition at 10.0 μM” value (10.0 μM compound, dihydrochloride, 10 µM) was determined as 77.77%.

Compound `Cc1nn(CCN2CCN(C)CC2)c2[nH]c(-c3cccc(C(F)(F)F)c3F)c(O)c(=O)c12` [Example 178, 6-(2-fluoro-3-(trifluoromethyl)phenyl)-5-hydroxy-3-methyl-1-(2-(4-methylpiperazin-1-yl)ethyl)-1H-pyrazolo[3,4-b]pyridin-4(7H)-one] registered an IC50 above 150 nM. Further, the inhibition at 1 µM (1.0 μM compound) stood at 89%.

Turning to `CCc1nn(C)c2[nH]c(-c3cnc(-c4ccc(F)cc4F)s3)c(O)c(=O)c12` [Example 187, 6-(2-(2,4-Difluorophenyl)thiazol-5-yl)-3-ethyl-5-hydroxy-1-methyl-1H-pyrazolo[3,4-b]pyridin-4(7H)-one], the half-inhibitory concentration (IC50) fell in the range of 100 to 150 nM. Moreover, for the setting “1.0 μM compound”, the inhibition at 1 µM was 77%. Besides, the inhibition at 10 µM (10.0 μM compound) stood at 77.8%.

In the case of `CCn1cnc2c(=O)c(O)c(-c3c(F)cccc3F)[nH]c21` [Example 101, 5-(2,6-Difluorophenyl)-3-ethyl-6-hydroxy-3H-imidazo[4,5-b]pyridin-7(4H)-one], the concentration for half-maximal inhibition (IC50) was above 150 nM. Moreover, the inhibition at 1 µM (1.0 μM compound) amounted to 69.7%. The inhibition at 10 µM (10.0 μM compound) was found to be 88.6%.

Turning to `CCc1nn(CC2CCOCC2)c2[nH]c(-c3c(F)cccc3F)c(O)c(=O)c12` [Example 207, 6-(2,6-Difluorophenyl)-3-ethyl-5-hydroxy-1-((tetrahydro-2H-pyran-4-yl)methyl)-1H-pyrazolo[3,4-b]pyridin-4(7H)-one], the IC50 lay within 50 to 100 nM. Moreover, the inhibition at 1 µM (1.0 μM compound) worked out at 87.8%. Moreover, where the note is “10.0 μM compound”, the inhibition at 10 µM turned out to be 88.2%.

`Cc1nn(CCN2CCCC2)c2[nH]c(-c3ccccc3Cl)c(O)c(=O)c12` [Example 151, 6-(2-Chlorophenyl)-5-hydroxy-3-methyl-1-(2-(pyrrolidin-1-yl)ethyl)-1H-pyrazolo[3,4-b]pyridin-4(7H)-one] yielded an IC50 above 150 nM. For the same compound, the inhibition at 1 µM (1.0 μM compound) was found to be 81.1%. Further, under “10.0 μM compound”, the inhibition at 10 µM amounted to 76.2%.

`Cc1nn(-c2ccc(F)cc2Cl)c2[nH]c(-c3ccccc3Cl)c(O)c(=O)c12` [Example 141, 1-(2-Chloro-4-fluorophenyl)-6-(2-chlorophenyl)-5-hydroxy-3-methyl-1H-pyrazolo[3,4-b]pyridin-4(7H)-one] displayed an IC50 above 150 nM. In addition, the inhibition at 1 µM (1.0 μM compound) came to 77.9%. In addition, the inhibition at 10 µM (10.0 μM compound) came out at 95.1%.

In the case of `CCn1ncc2c(=O)c(O)c(-c3c(F)cccc3F)[nH]c21` [Example 105, 6-(2,6-Difluorophenyl)-1-ethyl-5-hydroxy-1,7-dihydro-4H-pyrazolo[3,4-b]pyridin-4-one], the IC50 was above 150 nM. Moreover, the inhibition at 1 µM (1.0 μM compound) was found to be 99.1%. Moreover, the inhibition at 10 µM (10.0 μM compound) is 100%.

Compound `CCc1nn(CCC2CCOCC2)c2[nH]c(-c3c(F)cccc3F)c(O)c(=O)c12` [Example 211] came in with a concentration for half-maximal inhibition (IC50) of 50 to 100 nM. Further, the inhibition at 1 µM (1.0 μM compound) stood at 92.4%. Besides, for the setting “10.0 μM compound”, the inhibition at 10 µM was found to be 93.7%.

As to `CCc1nn(CCN2CCOC(C)(C)C2=O)c2[nH]c(-c3c(F)cccc3F)c(O)c(=O)c12` [Example 184, 4-(2-(6-(2,6-Difluorophenyl)-3-ethyl-5-hydroxy-4-oxo-4,7-dihydro-1H-pyrazolo[3,4-b]pyridin-1-yl)ethyl)-2,2-dimethylmorpholin-3-one], the concentration for half-maximal inhibition (IC50) is above 150 nM. The inhibition at 1 µM (1.0 μM compound) came out at 78.8%. Moreover, under “10.0 μM compound”, the inhibition at 10 µM is 81.6%.

With `Cc1nn(C2CC2)c2[nH]c(-c3c(F)cc(F)cc3F)c(O)c(=O)c12` [Example 94, 1-Cyclopropyl-5-hydroxy-3-methyl-6-(2,4,6-trifluorophenyl)-1H-pyrazolo[3,4-b]pyridin-4(7H)-one], the IC50 is above 150 nM. The inhibition at 1 µM (1.0 μM compound) was found to be 72.5%. In addition, the inhibition at 10 µM (10.0 μM compound) is 80%.

`CCn1nc(C)c2c(=O)c(O)c(-c3ccc(OCCOC)cc3F)[nH]c21` [Example 120, 1-Ethyl-6-[2-fluoro-4-(2-methoxyethoxy)phenyl]-5-hydroxy-3-methyl-1,7-dihydro-4H-pyrazolo[3,4-b]pyridin-4-one] had an IC50 above 150 nM. Moreover, the inhibition at 1 µM (1.0 μM compound) worked out at 64.8%.

Turning to `Cc1nn(C2CCOCC2)c2[nH]c(-c3c(F)cccc3F)c(O)c(=O)c12` [Example 128, 6-(2,6-Difluorophenyl)-5-hydroxy-3-methyl-1-(tetrahydro-2H-pyran-4-yl)-1,7-dihydro-4H-pyrazolo[3,4-b]pyridin-4-one], the half-maximal inhibitory concentration (IC50) fell in the range of 50 to 100 nM. Besides, the inhibition at 1 µM (1.0 μM compound) came out at 88.1%. The inhibition at 10 µM (10.0 μM compound) came out at 92.1%.
